Assay results reported in patent US7816522B2, “Triazolone derivatives” (Eisai Co., Ltd., priority 2006, dated 2010).
pIC50: −log10 of the molar value. Counter-ions that a name gives are not always drawn.

Biological target: T1, human clotting factor VIIa (Homo sapiens, UniProt P08709)
T1 construct: a human clotting factor VIIa (hereinafter, “Factor VIIa”) purified sample; purchased Enzyme Research Laboratories HFVIIa
Experiment: Inhibitory activity against clotting factor VIIa (chromogenic substrate Spectrozyme FVIIa, TF/Factor VIIa enzyme solution)
Type: biochemical
Conditions: human Factor VIIa 5 nmol/L with human TF 10 nmol/L, room temperature 40 minutes, 405 nm
Procedure, shortened: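 Human Factor VIIa (5 nmol/L) with human TF (10 nmol/L) in Tris-BSA buffer pH 7.4 containing 15 mmol/L CaCl2 and cephalin, with Spectrozyme FVIIa substrate. Reaction 40 min at room temperature; 4-nitroanilide read at 405 nm. IC50 by non-linear regression over 100 μmol/L–0.1 nmol/L.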

T1 sequence (P08709 213-466 limits assumed): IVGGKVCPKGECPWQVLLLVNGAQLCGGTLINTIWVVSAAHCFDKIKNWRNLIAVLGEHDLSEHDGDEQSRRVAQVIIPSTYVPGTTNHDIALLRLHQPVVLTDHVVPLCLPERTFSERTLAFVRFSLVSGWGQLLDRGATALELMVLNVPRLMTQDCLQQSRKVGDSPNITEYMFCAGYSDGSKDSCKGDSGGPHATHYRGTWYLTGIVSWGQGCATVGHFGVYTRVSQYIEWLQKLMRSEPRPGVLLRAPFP
T1 sequence (P08709 61-212 limits assumed): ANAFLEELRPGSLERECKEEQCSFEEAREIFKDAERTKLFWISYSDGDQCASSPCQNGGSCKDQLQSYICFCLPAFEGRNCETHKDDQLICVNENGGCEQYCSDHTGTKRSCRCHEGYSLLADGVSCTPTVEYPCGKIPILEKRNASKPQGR
T1 sequence (P13726 33-295 partner): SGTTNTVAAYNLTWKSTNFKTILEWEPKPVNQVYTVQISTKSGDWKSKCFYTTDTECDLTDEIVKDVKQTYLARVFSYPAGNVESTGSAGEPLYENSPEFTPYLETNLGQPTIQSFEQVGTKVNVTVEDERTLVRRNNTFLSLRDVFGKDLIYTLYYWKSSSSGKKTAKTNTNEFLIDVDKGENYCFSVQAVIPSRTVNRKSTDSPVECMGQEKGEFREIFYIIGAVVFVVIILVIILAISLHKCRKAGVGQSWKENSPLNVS

Structure (SMILES) | pIC50
CCOc1cc(OCCF)cc(C(Nc2ccc(C(=N)N)cc2)c2nn(-c3ncccn3)c(=O)[nH]2)c1 (racemic) [Example 78, (R) and (S)-4-({[3-ethoxy-5-(2-fluoroethoxy)phenyl]-(5-oxo-1-pyrimidin-2-yl-4,5-dihydro-1H-[1,2,4]triazol-3-yl)methyl}amino)benzamidine trifluoroacetate] | 7.90
COCCOc1c(OC)cc(C(Nc2ccc(C(=N)N)cc2)c2nn(-c3ccccc3OC)c(=O)[nH]2)cc1OC (stereo not shown) [Example 87, 4-({[3,5-dimethoxy-4-(2-methoxyethoxy)phenyl]-[1-(2-methoxyphenyl)-5-oxo-4,5-dihydro-1H-[1,2,4]triazol-3-yl]methyl}amino)benzamidine acetate] | 8.38
COc1cc(C(Nc2ccc(C(=N)N)cc2)c2nn(-c3ncccn3)c(=O)[nH]2)cc(CC#N)c1F (racemic) [Example 131, (R) and (S)-4-{[(3-cyanomethyl-4-fluoro-5-methoxyphenyl)-(5-oxo-1-pyrimidin-2-yl-4,5-dihydro-1H-[1,2,4]triazol-3-yl)methyl]amino}benzamidine acetate] | 8.25
COCCOc1cc(OC)cc(C(Nc2ccc(C(=N)N)cc2)c2nn(-c3cccnn3)c(=O)[nH]2)c1 (racemic) [Example 7, (R) and (S)-4-({[3-methoxy-5-(2-methoxyethoxy)phenyl]-(5-oxo-1-pyridazin-3-yl-4,5-dihydro-1H-[1,2,4]triazol-3-yl)methyl}amino)benzamidine acetate] | 8.00
CCOc1cc(C(Nc2ccc(C(=N)N)cc2)c2nn(-c3cccnn3)c(=O)[nH]2)ccc1OC (racemic) [Example 121, (R) and (S)-4-{[(3-ethoxy-4-methoxyphenyl)-(5-oxo-1-pyridazin-3-yl-4,5-dihydro-1H-[1,2,4]triazol-3-yl)methyl]amino}benzamidine acetate] | 8.17
COc1cc(C(Nc2ccc(C(=N)N)cc2)c2nn(-c3ncccn3)c(=O)[nH]2)cc(OC)n1 (racemic) [Example 54, (R) and (S)-4-{[(2,6-dimethoxypyridin-4-yl)-(5-oxo-1-pyrimidin-2-yl-4,5-dihydro-1H-[1,2,4]triazol-3-yl)methyl]amino}benzamidine acetate] | 7.73
COc1cc(OCC(F)F)c(F)c(C(Nc2ccc(C(=N)N)cc2)c2nn(-c3ncccn3)c(=O)[nH]2)c1 (racemic) [Example 99, 4-{[(R) and (S)-[3-(2,2-difluoroethoxy)-2-fluoro-5-methoxyphenyl]-(5-oxo-1-pyrimidin-2-yl-4,5-dihydro-1H-[1,2,4]triazol-3-yl)methyl]amino}benzamidine acetate] | 8.41
COc1cc(OCCF)c(F)c(C(Nc2ccc(C(=N)N)cc2)c2nn(-c3ncccc3N)c(=O)[nH]2)c1 (racemic) [Example 136, (R) and (S)-4-({[1-(3-aminopyridin-2-yl)-5-oxo-4,5-dihydro-1H-[1,2,4]triazol-3-yl]-[2-fluoro-3-(2-fluoroethoxy)-5-methoxyphenyl]methyl}amino)benzamidine acetate] | 8.29
COCc1cc(OC)cc(C(Nc2ccc(C(=N)N)cc2)c2nn(-c3ncccn3)c(=O)[nH]2)c1 (racemic) [Example 10, (R) and (S)-4-{[(3-methoxy-5-methoxymethylphenyl)-(5-oxo-1-pyrimidin-2-yl-4,5-dihydro-1H-[1,2,4]triazol-3-yl)methyl]amino}benzamidine acetate] | 7.68
COc1ccc(C(Nc2ccc(C(=N)N)cc2)c2nn(-c3cccnn3)c(=O)[nH]2)cc1OC (racemic) [Example 149, (R) and (S)-4-{[(3,4-dimethoxyphenyl)-(5-oxo-1-pyridazin-3-yl-4,5-dihydro-1H-[1,2,4]triazol-3-yl)methyl]amino}benzamidine acetate] | 8.04
COc1cc(COCCF)cc(C(Nc2ccc(C(=N)N)cc2)c2nn(-c3ncccn3)c(=O)[nH]2)c1 (racemic) [Example 72, (R) and (S)-4-({[3-(2-fluoroethoxymethyl)-5-methoxyphenyl]-(5-oxo-1-pyrimidin-2-yl-4,5-dihydro-1H-[1,2,4]triazol-3-yl)methyl}amino)benzamidine acetate] | 8.00
COc1cc(C(Nc2ccc(C(=N)N)cc2)c2nn(-c3ncccn3)c(=O)[nH]2)c(F)c2c1OCCCO2 (racemic) [Example 42, (R) and (S)-4-{[(6-fluoro-9-methoxy-3,4-dihydro-2H-benzo[b][1,4]dioxepin-7-yl)-(5-oxo-1-pyrimidin-2-yl-4,5-dihydro-1H-[1,2,4]triazol-3-yl)methyl]amino}benzamidine acetate] | 8.44
COc1cc(OCCF)c(F)c(C(Nc2ccc(C(=N)N)cc2)c2nn(-c3cccnc3N)c(=O)[nH]2)c1 (racemic) [Example 50, (R) and (S)-4-({[1-(2-aminopyridin-3-yl)-5-oxo-4,5-dihydro-1H-[1,2,4]triazol-3-yl]-[2-fluoro-3-(2-fluoroethoxy)-5-methoxyphenyl]methyl}amino)benzamidine diacetate] | 8.49
CCOc1cc(C(Nc2ccc(C(=N)N)cc2)c2nn(-c3ncccc3OC)c(=O)[nH]2)ccc1OCC(=O)NC (stereo not shown) [Example 126, 2-(4-{(4-carbamimidoylphenylamino)-[1-(3-methoxypyridin-2-yl)-5-oxo-4,5-dihydro-1H-[1,2,4]triazol-3-yl]methyl}-2-ethoxyphenoxy)-N-methyl-acetamide acetate] | 7.96
CCc1cc(OC)cc(C(Nc2ccc(C(=N)N)cc2)c2nn(-c3ncccn3)c(=O)[nH]2)c1 (racemic) [Example 75, (R) and (S)-4-{[(3-ethyl-5-methoxyphenyl)-(5-oxo-1-pyrimidin-2-yl-4,5-dihydro-1H-[1,2,4]triazol-3-yl)methyl]amino}benzamidine acetate] | 8.28
COc1cc(O[C@@H]2CCOC2)cc(C(Nc2ccc(C(=N)N)cc2)c2nn(-c3ncccn3)c(=O)[nH]2)c1 (mixture of isomers) [Example 5, 4-[((R) and (S)-{3-methoxy-5-[(R)-(tetrahydrofuran-3-yl)oxy]phenyl}-(5-oxo-1-pyrimidin-2-yl-4,5-dihydro-1H-[1,2,4]triazol-3-yl)methyl)amino]benzamidine acetate] | 8.31

The next lines start with the values.

pIC50 | Structure (SMILES)
7.87 | COc1cc(COCCO)c(F)c(C(Nc2ccc(C(=N)N)cc2)c2nn(-c3ncccn3)c(=O)[nH]2)c1 (single isomer, unassigned) [Example 216, 4-{[[2-Fluoro-3-(2-hydroxyethoxymethyl)-5-methoxyphenyl]-(5-oxo-1-pyrimidin-2-yl-4,5-dihydro-1H-[1,2,4]triazol-3-yl)methyl]amino}benzamidine]
7.65 | COc1cc(C(Nc2ccc(C(=N)N)cc2)c2nn(-c3ncsc3C(=O)O)c(=O)[nH]2)c(F)c2c1OCCO2 (single isomer, unassigned) [Example 188, 4-{3-[(4-Carbamimidoylphenylamino)-(5-fluoro-8-methoxy-2,3-dihydro-benzo[1,4]dioxin-6-yl)-methyl]-5-oxo-4,5-dihydro-[1,2,4]triazol-1-yl}thiazole-5-carboxylic acid]
8.34 | COc1cc(C(Nc2ccc(C(=N)N)cc2)c2nn(-c3ncccc3N)c(=O)[nH]2)cnc1OC (racemic) [Example 186, 4-{[(R) and (S)-[1-(3-Aminopyridin-2-yl)-5-oxo-4,5-dihydro-1H-[1,2,4]triazol-3-yl]-(5,6-dimethoxypyridin-3-yl)methyl]amino}benzamidine acetate]
7.80 | COc1ccc(C(Nc2ccc(C(=N)N)cc2)c2nn(-c3ncsc3C(=O)O)c(=O)[nH]2)cc1OC (racemic) [Example 193, (R) and (S)-4-{3-[(4-Carbamimidoylphenylamino)-(3,4-dimethoxyphenyl)methyl]-5-oxo-4,5-dihydro-[1,2,4]triazol-1-yl}-thiazole-5-carboxylic acid]
8.19 | CCOC(=O)c1cn[nH]c1-n1nc(C(Nc2ccc(C(=N)N)cc2)c2cc(OC)c3c(c2F)OCCO3)[nH]c1=O (stereo not shown) [Example 175, 5-{3-[(4-carbamimidoylphenylamino)-(5-fluoro-8-methoxy-2,3-dihydrobenzo[1,4]dioxin-6-yl)methyl]-5-oxo-4,5-dihydro-[1,2,4]triazol-1-yl}-1H-pyrazole-4-carboxylic acid ethyl ester acetate]
8.03 | COc1cc(C(Nc2ccc(C(=N)N)cc2)c2nn(-c3nc[nH]c3C(=O)O)c(=O)[nH]2)c(F)c2c1OCCO2 (single isomer, unassigned) [Example 191, 5-{3-[(R) or (S)-(4-Carbamimidoylphenylamino)-(5-fluoro-8-methoxy-2,3-dihydrobenzo[1,4]dioxin-6-yl)methyl]-5-oxo-4,5-dihydro-[1,2,4]triazol-1-yl}-3H-imidazole-4-carboxylic acid trifluoroacetate]
7.87 | COc1cc(C(Nc2ccc(C(=N)N)cc2)c2nn(-c3ncccn3)c(=O)[nH]2)cc2c1OCC(=O)N2CCF (racemic) [Example 223, 4-{[[4-(2-Fluoroethyl)-8-methoxy-3-oxo-3,4-dihydro-2H-benzo[1,4]oxazin-6-yl]-(5-oxo-1-pyrimidin-2-yl-4,5-dihydro-1H-[1,2,4]triazol-3-yl)methyl]amino}benzamidine]
7.73 | COc1cc(C(Nc2ccc(C(=N)N)cc2)c2nn(-c3ncsc3C(=O)O)c(=O)[nH]2)cc2c1OCOC2 (racemic) [Example 166, (R) and (S)-4-{3-[(4-carbamimidoylphenylamino)-(8-methoxy-4H-benzo[1,3]dioxin-6-yl)methyl]-5-oxo-4,5-dihydro-[1,2,4]triazol-1-yl}thiazole-5-carboxylic acid]
8.03 | COc1cc(OCCO)c(F)c(C(Nc2ccc(C(=N)N)cc2)c2nn(-c3ncccn3)c(=O)[nH]2)c1 (stereo not shown) [Example 181, 4-({[2-fluoro-3-(2-hydroxyethoxy)-5-methoxyphenyl]-(5-oxo-1-pyrimidin-2-yl-4,5-dihydro-1H-[1,2,4]triazol-3-yl)methyl}amino)benzamidine acetate]
